Assay in all cases: NCI anticancer screen, dose series, 48 h
Assay [1] has as its system SNB-75 CNS.
The test system of assay [2] is A549 NSCLC.
Assay [3] has as its system SF-295 CNS.
The test system of assay [4] is HOP-62 NSCLC.
Assay [5] relates to NCI-H460 lung.
Assay [6] relates to UACC-257 melanoma.
The subject of assay [7] is OVCAR-5 ovarian.
Assay [8] relates to SK-MEL-28 melanoma.
In assay [9] the test system is RXF 393 renal.
The test system of assay [10] is HCC-2998 colon.

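Results reflect a 48-hour exposure of cells in 96-well plates to compound at five concentrations. GI50 marks 50% less growth. TGI: total growth inhibition.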

As for `C[C@@H]1Cc2c([nH]c3ccccc23)[C@@H](c2c(F)cc(NC3CN(CCCF)C3)cc2F)N1CC(F)(F)CO`, the GI50 in assay [1] is 4.92 µM; in [2] it was 9.91 µM; in assay [3] it was 2.25 µM; in assay [4], 13.6 µM; in assay [5], 5.19 µM; in assay [6] it was 1.97 µM. The GI50 is 14.1 µM in assay [7], 2.45 µM in [8], 4.38 µM in assay [9] and 1.93 µM in assay [10]. For the same compound, the TGI in [1] is 20.5 µM; in assay [2] it was 28.7 µM; in [3], 5.21 µM; in [4], 31.1 µM; in [5], 19.2 µM; in assay [6], 4.51 µM. Moreover, the TGI in assay [7] stood at 27.9 µM; in assay [8], 6.49 µM; in [9] it was 17 µM; in assay [10], 4 µM.
As to `CN1CCN(c2ccc(Nc3nc(N)c(C(=O)c4ccc5c(c4)OCCO5)s3)cc2)CC1`, the GI50 is 2.28 µM in assay [1]; 4.3 µM in assay [2]; 3.65 µM in assay [3]; 5.18 µM in [4]; 2.85 µM in assay [5]; 3.97 µM in [6]. In addition, the GI50 in assay [7] was 2.86 µM; in assay [8], 4.6 µM; in assay [9] it was 1.71 µM; in assay [10] it was 9.67 µM. For the same compound, the TGI was determined as 6 µM in assay [1]; 15.7 µM in assay [2]; 10 µM in assay [3]; 13.2 µM in assay [4]; 9.75 µM in assay [5]; 12.6 µM in assay [6]. In addition, the TGI in assay [7] was 8.48 µM; in [8] it was 10.5 µM; in [9] it was 5.71 µM; in assay [10], over 19.6 µM.
For the compound `CC(C)C1CC2C(=O)N(c3ccccc3)C(=O)C2c2[nH]c3ccccc3c21` (configuration not stated), the TGI in [1] is 23.5 µM; in assay [2] it was over 100 µM; in [3] it was 65.5 µM; in assay [4], over 100 µM; in [5], over 100 µM; in assay [6], over 100 µM. The TGI in [7] was over 100 µM; in [8] it was over 100 µM; in assay [9] it was 57.4 µM; in assay [10], over 100 µM.
With `COc1ccc(C[C@@H]2NC[C@@H](O)[C@@H]2OC(C)=O)cc1`, the TGI was 0.0692 µM in assay [1]; 90 µM in assay [3]; over 100 µM in [7]; 0.127 µM in [8]; 0.0674 µM in [9]. In addition, the GI50 was 5.54 µM in [2]; 6.7 µM in assay [3]; 19.3 µM in assay [4]; 3.43 µM in [5]; 2.33 µM in assay [6]; 14.1 µM in assay [7]. Moreover, the GI50 in assay [10] was 2.19 µM.
`CN(C)C/C=C/C(=O)Nc1cc2c(Nc3ccc(F)c(Cl)c3F)ncnc2cc1OCCOC(F)F`: the GI50 in assay [1] is 0.162 µM; in assay [2], 0.596 µM; in [3] it was 1.72 µM; in assay [4], 1.31 µM; in assay [5] it was 2.34 µM; in assay [6], 2.18 µM. Also, the GI50 is 0.136 µM in [7], 2.29 µM in assay [8], 0.241 µM in assay [9] and 1.16 µM in [10]. Also, the TGI in assay [1] stood at 2.47 µM; in assay [2] it was 10.2 µM; in assay [3], 9.86 µM; in assay [4] it was 5.61 µM; in assay [5], 10.5 µM; in assay [6], 10.3 µM. In addition, the TGI came out at 13.7 µM in assay [7], 9.59 µM in assay [8], 1.6 µM in assay [9] and 2.68 µM in assay [10].
In the case of `CN(CC#N)C1CCCC[C@H]1O` (some centres not stated), the TGI in assay [1], in assay [2], in [3], in [4], in assay [5] and in [6] was over 100 µM in each case. For the same compound, the TGI in assay [7], in [8], in assay [9] and in assay [10] was over 100 µM throughout.
Turning to `CN1C(=O)[C@@H](NC(=O)[C@H](CCC(F)(F)F)[C@H](CCC(F)(F)F)C(N)=O)N=C(c2ccccc2)c2ccccc21`, the GI50 in assay [1] was 32.6 µM; in assay [2], 66.7 µM; in [3], 58.4 µM; in assay [4], over 100 µM; in assay [5] it was 83.4 µM; in assay [6], 67.7 µM. Further, the GI50 in assay [7] was over 100 µM; in [8] it was 59.7 µM; in assay [9] it was 24.6 µM; in assay [10], over 100 µM. Moreover, the TGI in assay [1], in assay [2], in [3], in assay [4], in [5] and in [6] was over 100 µM throughout. For the same compound, the TGI in assay [7], in assay [8], in assay [9] and in assay [10] was over 100 µM each time.
Turning to `O=C(Nc1ccccc1O)c1ccc(CNc2ccnc(C(F)(F)F)c2)cc1`, the GI50 in assay [1] was 7.26 µM; in [2] it was 12 µM; in assay [3], 3.16 µM; in assay [4] it was 5.54 µM; in [5], 3.78 µM; in assay [6] it was 8.4 µM. Also, the GI50 was 16.5 µM in [7], 3.52 µM in assay [8], 17.3 µM in assay [9] and 10.2 µM in assay [10]. Further, the TGI is 48.4 µM in assay [1]; over 100 µM in [2]; 17.1 µM in [3]; 47.6 µM in assay [4]; 83.4 µM in assay [5]; over 100 µM in [6]. The TGI is over 100 µM in assay [7], 23.4 µM in [8], 43.3 µM in assay [9] and 26.5 µM in assay [10].
Consider `CCn1cc(-c2ccnc3[nH]ccc23)c(-c2cccc(NC(=O)Nc3ccc(OCc4ccccc4)cc3)c2)n1`, for which the GI50 is 4.35 µM in [1]; 2.85 µM in assay [2]; 4.55 µM in assay [3]; over 14.9 µM in [4]; 7.45 µM in assay [5]; over 24.1 µM in [6]. The GI50 in assay [7] is 22.1 µM; in assay [8] it was 18.1 µM; in [9] it was 1.28 µM; in assay [10], 13.2 µM. For the same compound, the TGI in [1], in assay [2], in [3], in assay [4], in [5] and in assay [6] was over 25 µM in each case. Also, the TGI is over 25 µM in assay [7], over 25 µM in assay [8], 7.88 µM in [9] and over 25 µM in [10].
Turning to `CN(/N=C/c1cccc2cccnc12)c1ccc([N+](=O)[O-])cc1`, the TGI in assay [1], in [2], in [3], in assay [4], in assay [5] and in assay [6] was over 100 µM each time. Besides, the TGI in assay [7], in assay [8], in [9] and in assay [10] was over 100 µM throughout.
In the case of `CN1C(c2ccccc2)CS(=O)(=O)CS1(=O)=O` (configuration not stated), the TGI in [1], in [2], in assay [3], in assay [4], in assay [5] and in [6] was over 100 µM each time. Further, the TGI in assay [7], in assay [8], in assay [9] and in assay [10] was over 100 µM throughout.
Regarding `Fc1ccc(-c2ncn(C3CCNCC3)c2-c2ccnc(Oc3ccc(F)c(F)c3)n2)cc1`, the GI50 is 8.64 µM in assay [1]; 9.39 µM in assay [2]; 7.15 µM in assay [3]; 4.83 µM in assay [4]; 5.42 µM in [5]; 4.76 µM in [6]. The GI50 in [7] is 7.78 µM; in assay [8], 4.57 µM; in assay [9], 3.15 µM; in assay [10], 3.84 µM. Moreover, the TGI in assay [1] is over 25 µM; in assay [2], over 19.4 µM; in [3], over 17.2 µM; in assay [4], 9.56 µM; in assay [5] it was 13.1 µM; in assay [6] it was 9.15 µM. The TGI is over 25 µM in assay [7], 8.79 µM in [8], 6.48 µM in [9] and 7.77 µM in [10].
Take `Cc1cc(Nc2c3ccccc3nc3ccccc23)ccc1NS(C)(=O)=O`: the GI50 was 5.11 µM in assay [1]; 2.85 µM in assay [2]; 4.26 µM in assay [3]; 4.61 µM in assay [4]; 3.07 µM in [5]; 2.41 µM in assay [6]. In addition, the GI50 in assay [7] was 6.14 µM; in [8], 5.4 µM; in assay [9], 3.46 µM; in assay [10] it was 5.94 µM. Further, the TGI came out at 19.9 µM in [1]; 12 µM in assay [2]; 23.4 µM in assay [3]; 17.9 µM in [4]; 11.6 µM in [5]; 9.58 µM in [6]. In addition, the TGI turned out to be 22.2 µM in assay [7], 19.5 µM in assay [8], 16 µM in assay [9] and 20.7 µM in assay [10].
As for `CC(C)CC(=O)Nc1n[nH]c2c1CN(C(=O)C1CCN(C)CC1)C2(C)C`, the GI50 in [1] was 1.02 µM; in assay [2], 1.15 µM; in assay [3] it was 1.35 µM; in [4] it was 1.2 µM; in assay [5], 0.309 µM; in assay [6], 1.19 µM. Also, the GI50 in assay [7] was 1.9 µM; in assay [8] it was 0.626 µM; in assay [9], 1.22 µM; in assay [10], 1.17 µM. Also, the TGI in [1] was 4.14 µM; in assay [2], over 10 µM; in assay [3], over 10 µM; in [4] it was over 10 µM; in assay [5], over 10 µM; in [6] it was over 10 µM. For the same compound, the TGI in assay [7] was over 10 µM; in assay [8], over 10 µM; in assay [9] it was 4.04 µM; in [10] it was over 10 µM.
`COC1=CC(=O)C(OC)=C(OC)C1=O`: the GI50 in [1] is 12.1 µM; in assay [2] it was 49.5 µM; in assay [3] it was 17.8 µM; in assay [4], 16.2 µM; in [5] it was 77 µM; in assay [6], 14.2 µM. Also, the GI50 is 17.3 µM in [7], 28.3 µM in assay [8], 17.1 µM in assay [9] and over 100 µM in [10]. In addition, the TGI in assay [1] is 25.6 µM; in assay [2] it was over 100 µM; in [3] it was 33.5 µM; in [4], 29.7 µM; in [5], over 100 µM; in assay [6], 27.7 µM. The TGI in assay [7] is 33 µM; in [8], 94.1 µM; in [9], 30.9 µM; in [10], over 100 µM.
On to `C#CCN(N=O)C(=O)NC(CCCNC(=O)OCc1ccccc1)C(=O)OCc1ccccc1` (configuration not stated), for which the TGI in assay [1], in [2], in assay [3], in assay [4], in [5] and in assay [6] was over 100 µM throughout. Moreover, the TGI is over 100 µM in [7], over 100 µM in [8], 84.4 µM in [9] and over 100 µM in assay [10].
For `CC(=O)[O-].[Mn+3].[O-]c1ccccc1C=NCCN=Cc1ccccc1[O-]`, the GI50 was over 100 µM in [1]; over 100 µM in [2]; over 100 µM in assay [3]; over 100 µM in assay [4]; 44.4 µM in assay [5]; 51.2 µM in [6]. In addition, the GI50 in [7] is 96.4 µM; in assay [8], over 100 µM; in assay [9] it was over 100 µM; in [10] it was over 100 µM. Also, the TGI in assay [1], in assay [2], in [3], in assay [4], in assay [5] and in assay [6] was over 100 µM throughout. Moreover, the TGI in [7], in [8], in assay [9] and in assay [10] was over 100 µM each time.

The values above are taken from PubChem BioAssay (NCI).
